Source: patent US20060199206A1, “Method for identifying skin care composition-resistant skin-binding peptides” (priority 2005, published 2006)

Legend:
[1] = Phage ELISA for skin binding affinity (Example 14); parameters: species or system pig; conditions: 1×10^11 pfu of phage, 37° C. 15 min, TBST-0.5% washes; anti-M13 HRP conjugate; mean of at least three replicates
Procedure: (§1) Phage-peptide clones identified in Examples 11-13 were amplified by infecting fresh host cells (E. coli ER2338). The pigskin-bottom 96-well apparatus system described in Examples 11-13 was used for the ELISA procedure. For each clone to be tested, the pigskin well was incubated for 1 h at room temperature with 400 μL of blocking buffer, consisting of 2% non-fat dry milk (Schleicher & Schuell, Inc.) in TBS. The blocking buffer was removed by inverting the systems and blotting them dry with paper towels. The systems were rinsed 6 times with wash buffer consisting of TBST-0.05%. The wells were filled with 100 μL of TBST-0.5% containing 1 mg/mL of BSA and 1×10^11 pfu of phage. The samples were incubated at 37° C. for 15 min with slow shaking. The non-binding phage was removed by washing the wells 10 to 20 times with TBST-0.5%. Then, 100 μL of horseradish peroxidase/anti-M13 antibody conjugate (Amersham USA, Piscataway, N.J.), diluted 1:500 in the blocking buffer, was added to each well and incubated for 1 h at room temperature. The conjugate solution was removed and the wells were washed 6 times with TBST-0.05%. TMB substrate (200 μL), obtained from Pierce Biotechnology (Rockford, Ill.) was added to each well and the color was allowed to develop for between 5 to 30 min, typically for 10 min, at room temperature. Then, stop solution (200 μL of 2 M H2SO4) was added to each well and the solution was transferred to a 96-well plate and the absorbance at 450 nm (A450) was measured using a microplate spectrophotometer (Molecular Devices, Sunnyvale, Calif.). The resulting absorbance values, reported as the mean of at least three replicates, and the standard error of the mean (SEM) are given in Table 2.

[2] = Phage ELISA for skin binding affinity after body wash treatment (Example 15); parameters: species or system pig; conditions: mean of at least three replicates; for Body Wash A450 ± SEM: 200 μL Johnson's Head-to-Toe Baby Wash for 30 min after phage binding; for Buffer Wash A450 ± SEM: procedure of Example 14
Procedure: as §1
The ELISA procedure described in Example 14 was used with the following modification. After removal of the non-binding phage peptide solution from the wells, 200 μL of Johnson's Head-to-Toe Baby Wash was added to the wells and was incubated for 30 min. The washes and color development steps described in Example 14 were followed. For the buffer wash samples, the same procedure described in Example 14 was used. […] The resulting absorbance values, reported as the mean of at least three replicates, and the standard error of the mean are given in Table 3.

[3] = stated as known; cited from earlier work

GSSTVGRPSLYE (Body wash-resistant skin-binding peptide) [Skin-12mer-6]
A450 ± SEM [1]: 0.677 ± 0.104

SVSVGMKPSPRP (Body wash-resistant skin-binding peptide) [Skin-12mer-2]
A450 ± SEM [1]: 0.818 ± 0.108

SPLTVPYERKLL (Body wash-resistant skin-binding peptide) [Skin-12mer-8]
A450 ± SEM [1]: 0.433 ± 0.05

QLSYHAYPQANHHAP (Body wash-resistant skin-binding peptide) [Skin-15mer-1]
A450 ± SEM [1]: 1.264 ± 0.166
Body Wash A450 ± SEM [2]: 1.447 ± 0.178
Buffer Wash A450 ± SEM [2]: 1.031 ± 0.045

WPMHPEKGSRWS (Body wash-resistant skin-binding peptide) [Skin-12mer-11]
A450 ± SEM [1]: 0.81 ± 0.038

NLCDSARDSPRCKV (Body wash-resistant skin-binding peptide) [Skin-cys-3]
A450 ± SEM [1]: 0.927 ± 0.044

NQAASITKRVPY (Body wash-resistant skin-binding peptide) [Skin-12mer-5]
A450 ± SEM [1]: 0.391 ± 0.036

DWCDTIIPGRTCHG (Body wash-resistant skin-binding peptide) [Skin-cys-6]
A450 ± SEM [1]: 1.657 ± 0.047

D21: hair-binding phage peptide used as control in Example 15, known low binding affinity for skin (RTNAADHPAAVT; Hair-binding sequence) [Clone D21, reference compound]
Body Wash A450 ± SEM [2]: 0.549 ± 0.053
Buffer Wash A450 ± SEM [2]: 0.297 ± 0.004
binding affinity for skin [3]: low binding affinity for skin

DACSGNGHPNNCDR (Body wash-resistant skin-binding peptide) [Skin-cys-4]
A450 ± SEM [1]: 0.852 ± 0.033

TMGFTAPRFPHY (Body wash-resistant skin-binding peptide) [Skin-12mer-1]
A450 ± SEM [1]: 0.506 ± 0.097

SDTISRLHVSMT (Body wash-resistant skin-binding peptide) [Skin-12mer-7]
A450 ± SEM [1]: 1.134 ± 0.093

SGCHLVYDNGFCDH (Body wash-resistant skin-binding peptide) [Skin-cys-1]
A450 ± SEM [1]: 1.385 ± 0.046
Body Wash A450 ± SEM [2]: 1.444 ± 0.293
Buffer Wash A450 ± SEM [2]: 1.182 ± 0.070

SPYPSWSTPAGR (Body wash-resistant skin-binding peptide) [Skin-12mer-9]
A450 ± SEM [1]: 1.146 ± 0.131
Body Wash A450 ± SEM [2]: 2.265 ± 0.132
Buffer Wash A450 ± SEM [2]: 1.298 ± 0.11

IB5: hair-binding phage peptide (Huang et al.) used as control, known low binding affinity for skin (TPPELLHGDPRS; Hair-binding peptide)
Body Wash A450 ± SEM [2]: 0.453 ± 0.035
Buffer Wash A450 ± SEM [2]: 0.202 ± 0.010
binding affinity for skin [3]: low binding affinity for skin

NHSNWKTAADFL (Body wash-resistant skin-binding peptide) [Skin-12mer-4]
A450 ± SEM [1]: 0.874 ± 0.039

VQPITNTRYEGG (Body wash-resistant skin-binding peptide) [Skin-12mer-10]
A450 ± SEM [1]: 0.418 ± 0.036

ASCPSASHADPCAH (Body wash-resistant skin-binding peptide) [Skin-cys-2]
A450 ± SEM [1]: 1.184 ± 0.044
